In brackets after ≈: the same amount, converted by molar mass.
Legend:
HepG2 [1] = test: Antiproliferative activity against human HepG2 cells assessed as reduction in cell viability; assay type: functional, cell-based
Hep 3B2 = test: Antiproliferative activity against human Hep3B cells assessed as inhibition of cell viability after 72 hrs by CCK-8 assay; assay type: functional, cell-based
A2780 = test: Antiproliferative activity against human A2780 cells assessed as reduction in cell viability incubated for 48 hrs by MTT assay; assay type: functional, cell-based; conditions: A2780, 48 h
OVCAR-3 = test: Antiproliferative activity against human OVCAR-3 cells assessed as cell viability measured after 72 hrs incubation by MTT assay; assay type: functional, cell-based; conditions: OVCAR-3, 72 h
[2] = target: Cyclin-dependent kinase inhibitor 1 (p21) (human) (UniProt P38936); test: Upregulation of p21 gene expression in human HeLa cells assessed fold increase by RT-PCR analysis
HepG2 [3] = test: Cytotoxicity against human HepG2 cells assessed as reduction in cell viability; assay type: functional, cell-based
HeLa [4] = test: Antitumor activity against human HeLa cells assessed as inhibition of cell growth by MTT assay; assay type: functional, cell-based
[5] = Cytotoxicity against green monkey COS-7 cells; assay type: toxicity, cell-based; conditions: green monkey (Chlorocebus aethiops)
MCF7 [6] = test: Anticancer activity against human MCF7 cells assessed as cell growth inhibition by MTT assay; assay type: functional, cell-based
DLD-1 = test: Anticancer activity against human DLD-1 cells assessed as reduction in cell viability; assay type: functional, cell-based
SW-620 = test: Anticancer activity against human SW620 cells assessed as reduction in cell viability measured after 72 hrs by MTT assay; assay type: functional, cell-based; conditions: SW-620, 72 h
HCT-116 = test: Anticancer activity against human HCT-116 cells assessed as reduction in cell viability measured after 72 hrs by MTT assay; assay type: functional, cell-based; conditions: HCT-116, 72 h
MDA-MB-231 [7] = test: Anticancer activity against human MDA-MB-231 cells assessed as reduction in cell viability measured after 72 hrs by MTT assay; assay type: functional, cell-based; conditions: MDA-MB-231, 72 h
MDA-MB-231 [8] = test: Antiproliferative activity against human MDA-MB-231 cells assessed as cell growth inhibition measured after 48 hrs by MTT assay; assay type: functional, cell-based; conditions: MDA-MB-231, 48 h
MCF7 [9] = test: Cytotoxicity against human MCF7 cells assessed as reduction in cell growth by MTT assay; assay type: functional, cell-based
MDA-MB-468 = test: Anticancer activity against human MDA-MB-468 cells assessed as reduction in cell viability incubated for 48 hrs by MTT assay; assay type: functional, cell-based; conditions: MDA-MB-468, 48 h
HCC1937 = test: Anticancer activity against human HCC1937 cells assessed as reduction in cell growth incubated for 48 hrs by MTT assay; assay type: functional, cell-based; conditions: HCC1937, 48 h
MDA-MB-231 [10] = test: Anticancer activity against human MDA-MB-231 cells assessed as reduction in cell viability incubated for 48 hrs by MTT assay; assay type: functional, cell-based; conditions: MDA-MB-231, 48 h
Hs-578T = test: Anticancer activity against human Hs-578T cells assessed as cell growth inhibition by MTT assay; assay type: functional, cell-based
MDA-MB-231 [11] = test: Cytotoxicity against human MDA-MB-231 cells assessed as cell growth inhibition by SRB assay; assay type: functional, cell-based
MCF7 [12] = test: Cytotoxicity against human MCF7 cells assessed as cell growth inhibition by SRB assay; assay type: functional, cell-based
A549 [13] = test: Antiproliferative activity against human A549 cells assessed as reduction in cell viability measured after 24 hrs by MTT assay; assay type: functional, cell-based; conditions: A549, 24 h
HepG2 [14] = test: Anticancer activity against human HepG2 cells assessed as reduction in cell viability measured after 72 hrs by MTT assay; assay type: functional, cell-based; conditions: HepG2, 72 h
HepG2 [15] = test: Anticancer activity against human HepG2 cells assessed as reduction in cell viability; assay type: functional, cell-based
MDA-MB-231 [16] = test: Cytotoxicity against human MDA-MB-231 cells assessed as cell growth inhibition incubated for 72 hrs by MTT colorimetric assay; assay type: functional, cell-based; conditions: MDA-MB-231, 72 h
A549 [17] = test: Cytotoxicity against human A549 cells assessed as cell growth inhibition incubated for 72 hrs by MTT colorimetric assay; assay type: functional, cell-based; conditions: A549, 72 h
K562 = test: Cytotoxicity against human K562 cells assessed as cell growth inhibition incubated for 72 hrs by MTT colorimetric assay; assay type: functional, cell-based; conditions: K562, 72 h
HeLa [18] = test: Cytotoxicity against human HeLa cells assessed as cell growth inhibition incubated for 72 hrs by MTT colorimetric assay; assay type: functional, cell-based
[19] = target: ALK tyrosine kinase receptor (Homo sapiens, UniProt Q9UM73, L1196M); test: Inhibition of ALK L1196M mutant (unknown origin)
[20] = target: ALK tyrosine kinase receptor (Homo sapiens, UniProt Q9UM73, G1269A); test: Inhibition of ALK G1269A mutant (unknown origin)
[21] = target: ALK tyrosine kinase receptor (Homo sapiens, UniProt Q9UM73, G1202R); test: Inhibition of ALK G1202R mutant (unknown origin)
HeLa [22] = test: Antiproliferative activity against human HeLa cells assessed as inhibition of cell growth incubated for 72 hrs by MTT assay; assay type: functional, cell-based

Chain of ALK tyrosine kinase receptor (Homo sapiens, UniProt Q9UM73, L1196M) (Q9UM73 19-1620 L1196M limits assumed): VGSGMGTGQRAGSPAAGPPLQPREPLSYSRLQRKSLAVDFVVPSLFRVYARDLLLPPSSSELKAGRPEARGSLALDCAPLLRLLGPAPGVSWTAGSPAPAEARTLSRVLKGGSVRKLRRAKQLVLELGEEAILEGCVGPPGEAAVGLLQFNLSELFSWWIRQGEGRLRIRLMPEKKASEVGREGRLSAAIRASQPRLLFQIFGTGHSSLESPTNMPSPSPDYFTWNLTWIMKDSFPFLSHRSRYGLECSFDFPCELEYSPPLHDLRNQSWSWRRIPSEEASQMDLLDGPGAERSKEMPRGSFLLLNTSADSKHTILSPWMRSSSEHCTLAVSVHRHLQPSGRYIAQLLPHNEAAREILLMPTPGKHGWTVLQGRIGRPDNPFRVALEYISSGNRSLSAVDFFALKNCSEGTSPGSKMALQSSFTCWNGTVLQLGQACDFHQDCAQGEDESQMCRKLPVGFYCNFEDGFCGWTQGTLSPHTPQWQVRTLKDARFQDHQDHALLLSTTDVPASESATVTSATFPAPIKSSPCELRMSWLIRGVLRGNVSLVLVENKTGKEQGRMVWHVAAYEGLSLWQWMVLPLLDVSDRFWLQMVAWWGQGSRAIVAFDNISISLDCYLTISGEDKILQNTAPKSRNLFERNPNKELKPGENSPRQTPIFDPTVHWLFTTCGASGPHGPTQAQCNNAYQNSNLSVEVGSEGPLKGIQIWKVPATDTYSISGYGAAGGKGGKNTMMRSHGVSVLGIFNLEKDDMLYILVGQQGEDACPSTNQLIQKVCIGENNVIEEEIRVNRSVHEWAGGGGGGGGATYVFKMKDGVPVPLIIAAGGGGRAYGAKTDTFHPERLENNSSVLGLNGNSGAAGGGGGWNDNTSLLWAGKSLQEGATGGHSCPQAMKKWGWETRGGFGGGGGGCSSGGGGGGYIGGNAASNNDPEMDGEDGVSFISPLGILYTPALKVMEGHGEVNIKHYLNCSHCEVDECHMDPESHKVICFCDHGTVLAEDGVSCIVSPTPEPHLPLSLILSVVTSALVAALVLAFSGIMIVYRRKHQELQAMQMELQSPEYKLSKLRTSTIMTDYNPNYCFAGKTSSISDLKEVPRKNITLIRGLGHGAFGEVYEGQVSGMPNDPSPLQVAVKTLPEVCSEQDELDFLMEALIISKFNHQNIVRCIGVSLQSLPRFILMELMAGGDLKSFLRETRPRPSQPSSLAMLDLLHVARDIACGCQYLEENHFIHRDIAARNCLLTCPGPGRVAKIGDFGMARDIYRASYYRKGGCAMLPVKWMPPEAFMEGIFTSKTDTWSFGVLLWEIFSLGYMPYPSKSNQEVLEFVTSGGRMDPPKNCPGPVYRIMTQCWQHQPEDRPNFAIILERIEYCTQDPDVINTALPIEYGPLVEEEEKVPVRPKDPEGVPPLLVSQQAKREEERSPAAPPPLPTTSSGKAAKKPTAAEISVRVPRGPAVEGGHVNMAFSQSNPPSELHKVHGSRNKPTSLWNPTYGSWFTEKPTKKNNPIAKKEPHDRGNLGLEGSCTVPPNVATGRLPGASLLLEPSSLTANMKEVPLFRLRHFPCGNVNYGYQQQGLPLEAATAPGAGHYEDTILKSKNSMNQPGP
Chain of ALK tyrosine kinase receptor (Homo sapiens, UniProt Q9UM73, G1269A) (Q9UM73 19-1620 G1269A limits assumed): as the sequence (Q9UM73 19-1620 L1196M limits assumed) above, with M1178L, G1251A counted along it
Chain of ALK tyrosine kinase receptor (Homo sapiens, UniProt Q9UM73, G1202R) (Q9UM73 19-1620 G1202R limits assumed): as the sequence (Q9UM73 19-1620 L1196M limits assumed) above, with M1178L, G1184R counted along it

Compound `CCN(CC)c1ccc2cc(C(=O)N3CCN(CCC[C@H]4O[C@@H]5O[C@@]6(C)CC[C@H]7[C@H](C)CC[C@@H]([C@H]4C)[C@@]57OO6)CC3)c(=O)oc2c1` has an IC50 (HepG2 [1]) of 3.05 µM, an IC50 (Hep 3B2) of 3.76 µM and an IC50 (A2780) of 5.82 µM. The IC50 (OVCAR-3) was 4.6 µM.

With `CCOC(=O)c1sc(N/N=C(\C)c2cc3ccccc3oc2=O)nc1C` the “fold change (FC)” value [2] was 2.3.

In the case of `CO[C@@H]1O[C@H](Cn2nncc2COc2cc(=O)oc3ccccc23)[C@@H](O)[C@H](O)[C@H]1O`, the IC50 (HepG2 [3]) is reported as 107 µg/mL (≈ 255 µM).

Compound `O=c1oc2ccccc2cc1-c1csc(N/N=C/c2c3ccccc3c(Cl)c3ccccc23)n1` has an IC50 (HeLa [4]) of 1.29 µM and an IC50 [5] of 1.66 µM.

With `CCN(CC)c1ccc2oc(=O)c(-c3csc(-n4nc(-c5ccccc5)cc4N)n3)cc2c1` the IC50 (MCF7 [6]) was 8 µM.

Work on `COc1ccc(/C(C)=N/Nc2ncc(C(=O)c3cc4ccccc4oc3=O)s2)cc1` yielded an EC50 (DLD-1) of 5.79 µM.

Work on `O=C(OCC#CCOc1no[n+]([O-])c1S(=O)(=O)c1ccccc1)c1cc2ccccc2oc1=O` yielded an IC50 (SW-620) of 1.86 µM and an IC50 (HCT-116) of 3.46 µM.

`COC(=O)c1cc2cc(-c3nc4cc(C)ccn4c3NC(C)(C)C)cc(C(C)C)c2oc1=O` gave an IC50 (MDA-MB-231 [7]) of 14.1 µM.

With `COc1ccc2nc3ccccc3c(Nc3csc(-c4cc5ccccc5oc4=O)n3)c2c1` the IC50 (MDA-MB-231 [8]) was 8.03 µM.

`Cc1c(Cc2ccc(NC(=O)Nc3ccc(Br)cc3)nc2)c(=O)oc2cc(O)c(C(C)(C)C)cc12` gave an IC50 (MCF7 [9]) of 2.56 µM.

In the case of `O=c1oc2ccccc2c(O)c1C(c1ccc(O)cc1O)c1c(O)c2ccccc2oc1=O`, the IC50 (MDA-MB-468) is reported as 15.2 µM, the IC50 (HCC1937) is reported as 20.2 µM and the IC50 (MDA-MB-231 [10]) is reported as 25.3 µM. For the same compound, the IC50 (Hs-578T) was 25.7 µM.

With `Cc1c(-c2csc(N)n2)c(=O)oc2cc(OC(C)(C)C(=O)O)ccc12` the IC50 (MDA-MB-231 [11]) was 4.84 µM and the IC50 (MCF7 [12]) was 2.39 µM.

`O=C(/C(Cl)=N/Nc1ccc([N+](=O)[O-])cc1)n1c(-c2cc3ccccc3oc2=O)nc2ccccc21` showed an IC50 (A549 [13]) of 0.28 µM.

In the case of `O=C(OCCCOc1no[n+]([O-])c1S(=O)(=O)c1ccccc1)c1cc2ccccc2oc1=O`, the IC50 (HepG2 [14]) is reported as 3.86 µM.

`C/C(=N\Nc1ncc(C(=O)c2cc3ccccc3oc2=O)s1)c1ccc(C)cc1` gave an EC50 (HepG2 [15]) of 3.7 µM.

`COc1ccc(-n2nc(C)n(-n3c(-c4cc5ccccc5oc4=O)cs/c3=N\c3ccc(Cl)cc3)c2=O)cc1` showed an IC50 (MDA-MB-231 [11]) of 0.16 µM, an IC50 (MDA-MB-231 [16]) of 0.16 µM and an IC50 (A549 [17]) of 0.17 µM. For the same compound, the IC50 (K562) was 0.31 µM and the IC50 (HeLa [18]) was 0.25 µM.

For `COc1ccc2nc(-c3cc4ccc(N5CCOCC5)cc4oc3=O)sc2c1`, the IC50 [19] was 0.27 µM, the IC50 [20] was 0.3 µM and the IC50 [21] was 0.59 µM.

With `Cc1nn(-c2ccccc2)c(=O)n1-n1c(-c2cc3ccccc3oc2=O)cs/c1=N\c1ccc(Cl)cc1` the IC50 (HeLa [22]) was 0.21 µM.
